Assay results: publication PMC10163008 (Nature Communications, 2023)
Several values for one entry are separate records, joined by “and”; a condition that tells them apart may be missing. Identical values can stand only once.

Legend:
[1] = test system: patients with ALK-driven relapsed/refractory neuroblastoma; assay: Serial ctDNA profiling (FoundationACT / FoundationOne Liquid CDx) and clinical response in the NANT phase 1 lorlatinib trial; settings: Group 3 (ALK undetectable) patients, all responded
Procedure: Optional blood sampling was prospectively performed at predefined time points including pretreatment, after courses 2,4,6, and then after every 4th course and at disease progression. Patients <18 years of age were treated across 5 dose levels (cohort A1).
Blood samples for circulating tumor DNA profiling were drawn prior to enrollment, after courses 2, 4, and 6, and then after every 4 courses of treatment for the duration of patient participation in the trial. Forty-six patients were evaluable for this ctDNA study.
16-20 ml of whole blood was drawn from each patient and sent to Foundation Medicine in Streck tubes for ctDNA profiling.
Sequencing data were analyzed for the presence of short variants (single base substitutions and short insertions/deletions), copy number amplifications and homozygous deletions, and detectable gene rearrangements. […]
For most samples, we were able to estimate the ctDNA quantity using the comprehensive tumor fraction (CTF) method, using established computational methods[46],[47]. For samples in which no ALK was detected, we analyzed CTF to determine if any ctDNA was found in the cell-free DNA sequenced. For samples where CTF could not be calculated, MSAF was manually assessed to determine the fraction of ctDNA content[48]. […]

[2] = test system: CHLA-20 cells (ALK R1275Q, parental); assay: Cell viability assay (Cell Titer-Glo, 120 h); format: cell-based, human; settings: cell viability after 120 h of treatment
[3] = test system: CHLA-20 cells with ALK R1275Q/G1202R (CRISPR, in cis); assay: Cell viability assay (Cell Titer-Glo, 120 h); format: cell-based, human

C[C@H]1Oc2cc(cnc2N)-c2c(nn(C)c2C#N)CN(C)C(=O)c2ccc(F)cc21 [lorlatinib, (10R)-7-amino-12-fluoro-2,10,16-trimethyl-15-oxo-10,15,16,17-tetrahydro-2H-8,4-(metheno)pyrazolo[4,3-h][2,5,11]-benzoxadiazacyclotetradecine-3-carbonitrile]
duration of response [1]: 4 to 48 cycles of therapy | IC50 [2]: 15 ± 4 nM | cell viability ([3]; [lorlatinib] 33, 120 h, exp #1-#9): 104.185 and 94.5372 and 95.8368 and 98.7284 and 103.246 and 102.304 and 104.304 and 98.5652 | IC50 ([3]; cell viability after 120 h of treatment): 318 ± 58 nM
